System: 855422-203-R-J1-PDC complex spheroid viability
Test: Anticancer human tumor 855422-203-R-J1-PDC patient-derived bladder carcinoma cell line growth inhibition [POLQ]
Settings: for IC50: curve of first compound; for viability, T/C: stronger effect = lower value
Method in brief: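 Three-cell-type spheroids modelling solid tumor plus stroma served as the readout system; POL inhibitors were tested individually and in combination, concentration ranges set by clinical Cmax where known.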

[1] = second compound 0.0316 µM, first compound 0.0316 µM
[2] = second compound 0.0316 µM, first compound 0.1 µM
[3] = second compound 0.0316 µM, first compound 0.316 µM
[4] = second compound 0.0316 µM, first compound 1 µM
[5] = second compound 0.0316 µM, first compound 3.16 µM
[6] = second compound 0.0316 µM, first compound 10 µM
[7] = second compound 0.1 µM, first compound 0.0316 µM
[8] = second compound 0.1 µM, first compound 0.1 µM
[9] = second compound 0.1 µM, first compound 0.316 µM
[10] = second compound 0.1 µM, first compound 1 µM
[11] = second compound 0.1 µM, first compound 3.16 µM
[12] = second compound 0.1 µM, first compound 10 µM
[13] = second compound 0.316 µM, first compound 0.0316 µM
[14] = second compound 0.316 µM, first compound 0.1 µM
[15] = second compound 0.316 µM, first compound 0.316 µM
[16] = second compound 0.316 µM, first compound 1 µM
[17] = second compound 0.316 µM, first compound 3.16 µM
[18] = second compound 0.316 µM, first compound 10 µM
[19] = second compound 1 µM, first compound 0.0316 µM
[20] = second compound 1 µM, first compound 0.1 µM
[21] = second compound 1 µM, first compound 0.316 µM
[22] = second compound 1 µM, first compound 1 µM
[23] = second compound 1 µM, first compound 3.16 µM
[24] = second compound 1 µM, first compound 10 µM
[25] = second compound 3.16 µM, first compound 0.0316 µM
[26] = second compound 3.16 µM, first compound 0.1 µM
[27] = second compound 3.16 µM, first compound 0.316 µM
[28] = second compound 3.16 µM, first compound 1 µM
[29] = second compound 3.16 µM, first compound 3.16 µM
[30] = second compound 3.16 µM, first compound 10 µM
[31] = second compound 10 µM, first compound 0.0316 µM
[32] = second compound 10 µM, first compound 0.1 µM
[33] = second compound 10 µM, first compound 0.316 µM
[34] = second compound 10 µM, first compound 1 µM
[35] = second compound 10 µM, first compound 3.16 µM
[36] = second compound 10 µM, first compound 10 µM
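Note: spheroids exposed to compounds for seven days before readout.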

SMILES: CC(C)n1c(=O)n(C)c2cnc3cc(F)c(-c4ccc(OCCCN5CCCCC5)nc4)cc3c21 + Cc1cccc(N(C)C(=O)C2C(O)CCN2c2nc(C)cc(C(F)(F)F)c2C#N)c1
- IC50 (second compound 0.0316 µM): > 10 µM
- IC50 (second compound 0.1 µM): > 10 µM
- IC50 (second compound 0.316 µM): > 10 µM
- IC50 (second compound 1 µM): > 10 µM
- IC50 (second compound 3.16 µM): > 10 µM
- IC50 (second compound 10 µM): 6.79 µM
- viability, T/C [1]: 110%
- viability, T/C [2]: 113%
- viability, T/C [3]: 97.1%
- viability, T/C [4]: 84.5%
- viability, T/C [5]: 87.9%
- viability, T/C [6]: 57.6%
- viability, T/C [7]: 96.1%
- viability, T/C [8]: 104%
- viability, T/C [9]: 95.4%
- viability, T/C [10]: 85.8%
- viability, T/C [11]: 91.8%
- viability, T/C [12]: 56.3%
- viability, T/C [13]: 111%
- viability, T/C [14]: 104%
- viability, T/C [15]: 99.6%
- viability, T/C [16]: 87.4%
- viability, T/C [17]: 85.1%
- viability, T/C [18]: 60%
- viability, T/C [19]: 99.2%
- viability, T/C [20]: 92.6%
- viability, T/C [21]: 109%
- viability, T/C [22]: 94.1%
- viability, T/C [23]: 86.4%
- viability, T/C [24]: 56.2%
- viability, T/C [25]: 109%
- viability, T/C [26]: 101%
- viability, T/C [27]: 112%
- viability, T/C [28]: 97.5%
- viability, T/C [29]: 89.3%
- viability, T/C [30]: 56%
- viability, T/C [31]: 95.9%
- viability, T/C [32]: 97.8%
- viability, T/C [33]: 99.5%
- viability, T/C [34]: 94.2%
- viability, T/C [35]: 81.4%
- viability, T/C [36]: 33.9%

SMILES: CC1COCCN1c1cc(-c2ccnn2C)c2ccnc(-c3ccn[nH]3)c2n1 (centres undefined) + Cc1cccc(N(C)C(=O)C2C(O)CCN2c2nc(C)cc(C(F)(F)F)c2C#N)c1
- IC50 (second compound 0.0316 µM): 0.168 µM
- IC50 (second compound 0.1 µM): 0.152 µM
- IC50 (second compound 0.316 µM): 0.167 µM
- IC50 (second compound 1 µM): 0.165 µM
- IC50 (second compound 3.16 µM): 0.155 µM
- IC50 (second compound 10 µM): 0.167 µM
- viability, T/C [1]: 113%
- viability, T/C [2]: 73%
- viability, T/C [3]: 21.4%
- viability, T/C [4]: 12.4%
- viability, T/C [5]: 7.93%
- viability, T/C [6]: 7.23%
- viability, T/C [7]: 94.7%
- viability, T/C [8]: 68.9%
- viability, T/C [9]: 17.3%
- viability, T/C [10]: 9.3%
- viability, T/C [11]: 8.23%
- viability, T/C [12]: 7.12%
- viability, T/C [13]: 108%
- viability, T/C [14]: 73.4%
- viability, T/C [15]: 20.4%
- viability, T/C [16]: 10.9%
- viability, T/C [17]: 7.43%
- viability, T/C [18]: 7.37%
- viability, T/C [19]: 111%
- viability, T/C [20]: 70.3%
- viability, T/C [21]: 23.3%
- viability, T/C [22]: 11.7%
- viability, T/C [23]: 8.35%
- viability, T/C [24]: 7.83%
- viability, T/C [25]: 105%
- viability, T/C [26]: 66.8%
- viability, T/C [27]: 22.7%
- viability, T/C [28]: 10.6%
- viability, T/C [29]: 7.46%
- viability, T/C [30]: 6.31%
- viability, T/C [31]: 93.5%
- viability, T/C [32]: 70.3%
- viability, T/C [33]: 24.7%
- viability, T/C [34]: 12.4%
- viability, T/C [35]: 8.8%
- viability, T/C [36]: 9.23%

— PubChem BioAssay AID1963838 (Molecular Pharmacology Branch, DTP, NCI, 2024)
